Measurements from patent US10815210B2, “Benzocyclobutane derivatives useful as dual SGLT1 / SGLT2 modulators” (Janssen Pharmaceutica NV, priority 2016, dated 2020).
pIC50: −log10 of the molar value.

Legend:
[1] = molecular target: T1, human SGLT1 (Homo sapiens, UniProt P13866); test: SGLT1 assay: Na-dependent 14C-AMG uptake in CHO-K1 cells stably expressing human SGLT1; format: cell-based; conditions: for pIC50: 500 μM AMG, 2 hours at 37° C.
T1 construct: expressed in transfected cells; host or cells: CHO-K1
T1 sequence (P13866 1-664): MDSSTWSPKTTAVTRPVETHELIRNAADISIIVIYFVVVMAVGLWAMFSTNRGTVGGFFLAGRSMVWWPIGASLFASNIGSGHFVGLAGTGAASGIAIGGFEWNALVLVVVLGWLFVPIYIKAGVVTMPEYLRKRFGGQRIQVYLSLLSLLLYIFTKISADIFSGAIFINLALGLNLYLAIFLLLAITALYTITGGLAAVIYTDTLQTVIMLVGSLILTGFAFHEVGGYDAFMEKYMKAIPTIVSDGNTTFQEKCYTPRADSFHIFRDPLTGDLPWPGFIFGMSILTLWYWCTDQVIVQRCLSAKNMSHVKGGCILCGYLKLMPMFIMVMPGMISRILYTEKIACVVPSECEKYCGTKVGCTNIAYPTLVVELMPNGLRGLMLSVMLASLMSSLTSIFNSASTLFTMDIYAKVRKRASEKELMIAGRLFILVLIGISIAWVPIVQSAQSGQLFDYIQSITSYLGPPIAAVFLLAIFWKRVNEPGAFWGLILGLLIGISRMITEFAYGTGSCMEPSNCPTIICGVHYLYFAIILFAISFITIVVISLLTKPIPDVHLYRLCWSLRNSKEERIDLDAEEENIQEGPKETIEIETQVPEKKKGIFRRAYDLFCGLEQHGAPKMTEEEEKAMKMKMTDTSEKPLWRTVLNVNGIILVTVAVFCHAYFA
Protocol: (§1) SGLT1 and SGLT2 were cloned in form of cDNA from human small intestine (Genbank M24847), and from human kidney (Genbank M95549), respectively. Subsequently, each full cDNA was subcloned into pcDNA with each construct's integrity verified through follow-on sequencing. To generate CHO-K1 cells that stably express human SGLT1 or human SGLT2, CHO-K1 cells were transfected using DMRIE-C reagent (Life Technologies, Gaithersburg, Md.). Transfected cells were then selected in the presence of 500 μg/ml of the Geneticin (G418 Cellgro Catalog No. 30234-CI)
(§2) Individual clones were then characterized using the following cell-based assay for sodium-dependent glucose transport:
(§3) Inhibition of SGLT1 and SGLT2 activity was assessed in CHO K1 cells stably expressing either human SGLT1 or SGLT2, using the SGLT specific glucose analog methyl-glucopyranoside (Sigma Catalog No. M-9376). Cells were plated (45,000 cells/well) in white wall 96-well plates (COSTAR, Cat#3903) for 24 hours in growth medium, then a final concentration of 10 mM Na-Butyrate (ALDRICH Cat#30341-0) was added. The cells were incubated for 24 hours. On the day of the assay, cells were rinsed and treated with test compounds (at concentrations of 0.001 μM to 10 μM) in assay buffer (50 mM HEPES, 20 mM Tris base, 5 mM KCl, 1 mM MgCl2, 1 mM CaCl2 and 137 mM NaCl, pH 7.4) for 10 minutes. Cells were then incubated with ^14C-a-methyl-d-glucopyranoside (AMG, Amersham Catalog No. CFB 76), using 0.07 μCi per well in 500 μM AMG final concentration. The cells were incubated for 2 hours at 37° C. with 5% CO2 and washed two times with ice-cold Phosphate Buffer Solution (Cellgro Catalog No. 21030-CV). The cells were then solubilized by adding 60 μl of MICROSCINT™20 and the Na-dependent ^14C-AMG uptake was quantified by measuring radioactivity. Plates were counted in a TopCount (Packard, Meriden, Conn.)

[2] = molecular target: T2, human SGLT2 (Homo sapiens, UniProt P31639); test: SGLT2 assay: Na-dependent 14C-AMG uptake in CHO-K1 cells stably expressing human SGLT2; format: cell-based; conditions: for pIC50: 500 μM AMG, 2 hours at 37° C.
T2 construct: expressed in transfected cells; host or cells: CHO-K1
T2 sequence (P31639 1-672): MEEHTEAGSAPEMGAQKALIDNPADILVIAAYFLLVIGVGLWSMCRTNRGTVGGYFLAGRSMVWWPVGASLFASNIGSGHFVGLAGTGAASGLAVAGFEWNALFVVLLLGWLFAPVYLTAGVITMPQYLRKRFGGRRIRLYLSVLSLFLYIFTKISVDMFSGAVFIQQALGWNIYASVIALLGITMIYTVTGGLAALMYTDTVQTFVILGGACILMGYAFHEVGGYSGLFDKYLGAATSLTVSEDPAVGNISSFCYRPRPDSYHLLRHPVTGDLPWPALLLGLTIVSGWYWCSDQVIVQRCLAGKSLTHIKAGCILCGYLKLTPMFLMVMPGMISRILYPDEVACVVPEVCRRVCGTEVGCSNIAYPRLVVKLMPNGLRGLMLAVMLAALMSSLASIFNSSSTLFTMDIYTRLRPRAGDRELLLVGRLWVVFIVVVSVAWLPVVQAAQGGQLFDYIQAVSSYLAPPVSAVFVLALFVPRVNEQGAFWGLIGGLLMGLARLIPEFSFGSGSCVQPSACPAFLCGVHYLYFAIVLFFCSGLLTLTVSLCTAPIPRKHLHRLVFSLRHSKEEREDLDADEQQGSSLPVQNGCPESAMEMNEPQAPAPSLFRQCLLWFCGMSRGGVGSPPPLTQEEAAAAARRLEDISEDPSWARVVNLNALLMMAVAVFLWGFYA
Protocol: as §1, §2, §3

pIC50 [1] | pIC50 [2] | inhibition at 0.3 µM [1] | inhibition at 0.03 µM [2] | Compound
7.28 | 9.00 | – | – | COc1cc(Cl)c(Cc2ccc3c(c2)CC3)cc1[C@@H]1O[C@H](CO)[C@@H](O)[C@H](O)[C@H]1O [Compound 9]
8.30 | 9.00 | – | – | COc1cc(O)c([C@@H]2O[C@H](CO)[C@@H](O)[C@H](O)[C@H]2O)cc1Cc1ccc2c(c1)CC2 [Compound 10, (2S,3R,4R,5S,6R)-2-(5-((1,2-dihydrocyclobutabenzen-4-yl)methyl)-2-hydroxy-4-methoxyphenyl)-6-(hydroxymethyl)-tetrahydro-2H-pyran-3,4,5-triol]
7.24 | 9.00 | – | – | COc1cc(OC)c([C@@H]2O[C@H](CO)[C@@H](O)[C@H](O)[C@H]2O)cc1Cc1ccc2c(c1)CC2 [Compound 11, (2S,3R,4R,5S,6R)-2-(5-((1,2-dihydrocyclobutabenzen-4-yl)methyl)-2,4-dimethoxyphenyl)-6-(hydroxymethyl)-tetrahydro-2H-pyran-3,4,5-triol]
8.52 | 8.70 | – | – | CCc1cc(O)c([C@@H]2O[C@H](CO)[C@@H](O)[C@H](O)[C@H]2O)cc1Cc1ccc2c(c1)CC2 [Compound 12]
7.49 | 9.00 | – | – | CCc1cc(OC)c([C@@H]2O[C@H](CO)[C@@H](O)[C@H](O)[C@H]2O)cc1Cc1ccc2c(c1)CC2 [Compound 13, (2S,3R,4R,5S,6R)-2-(5-((1,2-dihydrocyclobutabenzen-4-yl)methyl)-4-ethyl-2-methoxyphenyl)-6-(hydroxymethyl)-tetrahydro-2H-pyran-3,4,5-triol]
8.52 | 8.22 | – | – | OC[C@H]1O[C@@H](c2cc(Cc3ccc4c(c3)CC4)c(C3CC3)cc2O)[C@H](O)[C@@H](O)[C@@H]1O [Compound 14, (2S,3R,4R,5S,6R)-2-(5-(bicyclo[4.2.0]octa-1(6),2,4-trien-3-ylmethyl)-4-cyclopropyl-2-hydroxyphenyl)-6-(hydroxymethyl)oxane-3,4,5-triol]
– | – | 67% | 31% | COc1cc(C2CC2)c(Cc2ccc3c(c2)CC3)cc1[C@@H]1O[C@H](CO)[C@@H](O)[C@H](O)[C@H]1O [Compound 15, (2S,3R,4R,5S,6R)-2-(5-(bicyclo[4.2.0]octa-1(6),2,4-trien-3-ylmethyl)-4-cyclopropyl-2-methoxyphenyl)-6-(hydroxymethyl)oxane-3,4,5-triol]
– | – | 0% | 43% | N#Cc1ccc([C@@H]2O[C@H](CO)[C@@H](O)[C@H](O)[C@H]2O)cc1Cc1ccc2c(c1)CC2 [Compound 16, 2-((1,2-dihydrocyclobutabenzen-4-yl)methyl)-4-((2S,3R,4R,5S,6R)-3,4,5-trihydroxy-6-(hydroxymethyl)-tetrahydro-2H-pyran-2-yl)benzonitrile]
6.72 | 9.00 | – | – | N#Cc1cc(O)c([C@@H]2O[C@H](CO)[C@@H](O)[C@H](O)[C@H]2O)cc1Cc1ccc2c(c1)CC2 [Compound 17, 2-((1,2-dihydrocyclobutabenzen-4-yl)methyl)-5-hydroxy-4-((2S,3R,4R,5S,6R)-3,4,5-trihydroxy-6-(hydroxymethyl)-tetrahydro-2H-pyran-2-yl)benzonitrile]
– | – | 25% | 74% | COc1cc(C#N)c(Cc2ccc3c(c2)CC3)cc1[C@@H]1O[C@H](CO)[C@@H](O)[C@H](O)[C@H]1O [Compound 18, 2-((1,2-dihydrocyclobutabenzen-4-yl)methyl)-5-methoxy-4-((2S,3R,4R,5S,6R)-3,4,8-trihydroxy-6-(hydroxymethyl)-tetrahydro-2H-pyran-2-yl)benzonitrile]
– | – | 62% | 38% | OC[C@H]1O[C@@H](c2cc(Cc3ccc4c(c3)CC4)c(F)cc2O)[C@H](O)[C@@H](O)[C@@H]1O [Compound 19, (2S,3R,4R,5S,6R)-2-(5-(bicyclo[4.2.0]octa-1(6),2,4-trien-3-ylmethyl)-4-fluoro-2-hydroxyphenyl)-6-(hydroxymethyl)tetrahydro-2H-pyran-3,4,5-triol]
– | – | 24% | 77% | COc1cc(F)c(Cc2ccc3c(c2)CC3)cc1[C@@H]1O[C@H](CO)[C@@H](O)[C@H](O)[C@H]1O [Compound 20, (2S,3R,4R,5S,6R)-2-(5-((1,2-dihydrocyclobutabenzen-4-yl)methyl)-4-fluoro-2-methoxyphenyl)-6-(hydroxymethyl)-tetrahydro-2H-pyran-3,4,5-triol]
– | – | 67% | 35% | CN(C)c1ccc([C@@H]2O[C@H](CO)[C@@H](O)[C@H](O)[C@H]2O)cc1Cc1ccc2c(c1)CC2 [Compound 21, (2S,3R,4R,5S,6R)-2-(3-(bicyclo[4.2.0]octa-1(6),2,4-trien-3-ylmethyl)-4-(dimethylamino)phenyl)-6-(hydroxymethyl)oxane-3,4,8-triol]
7.92 | 8.52 | – | – | CN(C)c1cc(O)c([C@@H]2O[C@H](CO)[C@@H](O)[C@H](O)[C@H]2O)cc1Cc1ccc2c(c1)CC2 [Compound 22, (2S,3R,4R,5S,6R)-2-(5-((1,2-dihydrocyclobutabenzen-4-yl)methyl)-4-(dimethylamino)-2-hydroxyphenyl)-6-(hydroxymethyl)-tetrahydro-2H-pyran-3,4,5-triol]
– | – | 24% | 39% | COc1cc(N(C)C)c(Cc2ccc3c(c2)CC3)cc1[C@@H]1O[C@H](CO)[C@@H](O)[C@H](O)[C@H]1O [Compound 23, (2S,3R,4R,5S,6R)-2-(5-((1,2-dihydrocyclobutabenzen-4-yl)methyl)-4-(dimethylamino)-2-methoxyphenyl)-6-(hydroxymethyl)-tetrahydro-2H-pyran-3,4,5-triol]
– | – | 5% | 23% | OC[C@H]1O[C@@H](c2cccc(Cc3ccc4c(c3)CC4)c2)[C@H](O)[C@@H](O)[C@@H]1O [Compound 24, (2S,3R,4R,5S,6R)-2-(3-((1,2-dihydrocyclobutabenzen-4-yl)methyl)phenyl)-6-(hydroxymethyl)-tetrahydro-2H-pyran-3,4,5-triol]
– | – | 36% | 71% | OC[C@H]1O[C@@H](c2cc(Cc3ccc4c(c3)CC4)ccc2O)[C@H](O)[C@@H](O)[C@@H]1O [Compound 25, (2S,3R,4R,5S,6R)-2-(5-{bicyclo[4.2.0]octa-1(6),2,4-trien-3-ylmethyl}-2-hydroxyphenyl)-6-(hydroxymethyl)oxane-3,4,5-triol]
– | – | 5% | 58% | COc1ccc(Cc2ccc3c(c2)CC3)cc1[C@@H]1O[C@H](CO)[C@@H](O)[C@H](O)[C@H]1O [Compound 26, (2S,3R,4R,5S,6R)-2-(5-(bicyclo[4.2.0]octa-1(6),2,4-trien-3-ylmethyl)-2-methoxyphenyl)-6-(hydroxymethyl)oxane-3,4,5-triol]
